Test results as given in publication PMC9135634 (Nature chemical biology, 2022).

Key:
HRAS WT = HRAS WT (Homo sapiens, UniProt P01112); assay: RAS BRET target engagement assay, live HEK-293 cells; assay type: cell-based
HRAS(G12C) = HRAS(G12C) (Homo sapiens, UniProt P01112, G12C); assay: as above
KRAS(G12C) = KRAS(G12C) (Homo sapiens, UniProt P01116, G12C); assay: as above; assay type: cell-based; settings: BRET competition
KRAS WT = KRAS WT (Homo sapiens, UniProt P01116); assay: RAS BRET target engagement assay; assay type: cell-based; settings: across all RAS variants studied
NanoLuc-ABL1 = NanoLuc-ABL1 (Homo sapiens, UniProt P00519); assay: NanoBRET TE Intracellular Kinase Assay, K-4; assay type: cell-based
NanoLuc-ABL1, sequence (P00519 whole entry): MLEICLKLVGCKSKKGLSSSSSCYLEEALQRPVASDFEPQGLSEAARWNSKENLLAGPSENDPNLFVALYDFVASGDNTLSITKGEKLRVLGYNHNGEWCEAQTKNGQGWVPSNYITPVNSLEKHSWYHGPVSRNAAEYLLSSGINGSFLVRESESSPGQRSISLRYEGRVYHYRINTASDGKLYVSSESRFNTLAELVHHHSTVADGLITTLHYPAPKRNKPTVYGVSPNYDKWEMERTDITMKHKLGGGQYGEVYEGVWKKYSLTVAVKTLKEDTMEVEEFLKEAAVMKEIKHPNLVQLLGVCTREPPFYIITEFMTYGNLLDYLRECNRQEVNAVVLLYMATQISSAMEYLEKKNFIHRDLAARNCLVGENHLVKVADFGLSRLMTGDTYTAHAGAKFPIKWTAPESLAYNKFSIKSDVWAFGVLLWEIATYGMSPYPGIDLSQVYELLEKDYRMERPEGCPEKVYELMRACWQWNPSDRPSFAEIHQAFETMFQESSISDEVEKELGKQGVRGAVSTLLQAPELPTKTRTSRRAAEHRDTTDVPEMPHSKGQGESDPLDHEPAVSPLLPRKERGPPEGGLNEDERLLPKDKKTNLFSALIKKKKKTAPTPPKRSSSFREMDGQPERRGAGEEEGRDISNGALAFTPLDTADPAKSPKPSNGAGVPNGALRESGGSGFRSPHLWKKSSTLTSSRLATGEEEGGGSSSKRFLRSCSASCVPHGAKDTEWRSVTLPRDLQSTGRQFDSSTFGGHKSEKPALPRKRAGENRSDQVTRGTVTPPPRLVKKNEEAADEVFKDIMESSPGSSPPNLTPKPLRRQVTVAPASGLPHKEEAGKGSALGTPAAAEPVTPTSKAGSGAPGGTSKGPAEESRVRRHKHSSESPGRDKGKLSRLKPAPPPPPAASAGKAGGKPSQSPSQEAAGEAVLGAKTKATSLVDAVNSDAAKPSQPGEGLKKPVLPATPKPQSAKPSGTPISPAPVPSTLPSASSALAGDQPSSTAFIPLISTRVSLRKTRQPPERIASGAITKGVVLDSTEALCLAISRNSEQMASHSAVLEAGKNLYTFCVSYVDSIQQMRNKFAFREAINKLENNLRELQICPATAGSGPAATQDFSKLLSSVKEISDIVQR
KRAS(D54R) : CRAF(RBD) = KRAS(D54R) : CRAF(RBD) (Homo sapiens, UniProt P01116, D54R); assay: NanoBiT-KRAS:CRAF; assay type: cell-based
NanoBiT-KRAS WT = NanoBiT-KRAS WT (Homo sapiens, UniProt P01116); assay: NanoBiT-RAS luminescence; assay type: cell-based; settings: live cells; titration
KRAS(Y96D) = KRAS(Y96D) (Homo sapiens, UniProt P01116, Y96D); assay: RAS BRET target engagement assay, live HEK-293 cells; assay type: cell-based
HEK-293 cells = assay type: cell-based; settings: RAS-independent cell line
A375 cells = assay: Anti-proliferative activity, CellTiter-Glo 2.0; assay type: cell-based; settings: BRAF V600E, RAS-independent

## C=CC(=O)N1CCN(c2nc(=O)n(-c3c(C)ccnc3C(C)C)c3nc(-c4c(O)cccc4F)c(F)cc23)[C@@H](C)C1 [AMG510, sotorasib]
HRAS WT
  BRET engagement: No engagement
HRAS(G12C)
  BRET engagement: showed vulnerability

## C=CC(=O)N1CCN(c2ncnc3c(F)c(-c4c(O)cccc4F)c(Cl)cc23)CC1 [ARS-1620]
KRAS(G12C)
  hill coefficient: 1.1

## Cn1cnc(Cn2ccc3ccc(CNCc4[nH]c5ccccc5c4[C@H]4NC(=O)c5ccc(O)cc54)cc32)c1 [BI-2852]
KRAS WT
  Hill coefficients, mean: 1.9 ± 0.7
  Hill coefficients, range: 1.3−3.3
NanoLuc-ABL1
  effect on BRET or luminescence in irrelevant target engagement assay: had no effect on the BRET or luminescence
KRAS(D54R) : CRAF(RBD)
  inhibition of CRAF-RBD interaction with KRAS(D54R) dimers: unable to inhibit the interaction
NanoBiT-KRAS WT
  effect on RAS dimerization NanoBiT signal: did not impact

## CCC(=O)N1CCN(c2nc(OC[C@@H]3CCCN3C)nc3c2CCN(c2cccc4cccc(Cl)c24)C3)C[C@@H]1CC#N [Compound 10]
KRAS(Y96D)
  BRET engagement: not observed

## C=C(F)C(=O)N1CCN(c2nc(OC[C@@H]3CCCN3C)nc3c2CCN(c2cccc4cccc(Cl)c24)C3)C[C@@H]1CC#N [MRTX849]
HRAS WT
  BRET engagement: No engagement
HEK-293 cells
  anti-proliferative / cytotoxic effect: the same effect
A375 cells
  anti-proliferative effect: the same effect
HRAS(G12C)
  BRET engagement: showed vulnerability
  affinity for HRAS(G12C) weaker than that observed for KRAS(G12C): 3 orders of magnitude
